From patent US20110065629A1, “ENTERAL NUTRIENT” (AMINO UP CHEMICAL CO., LTD., priority 2008, published 2011)

Tested on: Dendritic cells separated from the bone marrow and spleen
Test: External appearance of dendritic cells in plastic dishes with or without LPS
Assay type: cell-based, normal mice
Conditions: AHCC 5 mg/ml, β-glucan 1 mg/ml
Experimental: Dendritic cells separated from the bone marrow and spleen of normal mice were placed in plastic dishes to measure the external appearances of dendritic cells in the case of adding only LPS so as to achieve a final concentration of 5 μg/ml and in the case of adding LPS and AHCC (final concentration: 5 mg/ml) or β-glucan (final concentration: 1 mg/ml).

Substance: β-glucan
- Cell morphology (LPS stimulation (5 μg/ml)): Deformation
- Cell morphology (Normal condition): Spherical
